PMC3684613 (PLoS ONE, 2013)
Like-named read-outs stand apart in the source and are kept apart here.

Tests used:
P. falciparum 3D7 [1] = experiment: DAPI stain fluorescent high content imaging assay, P. falciparum 3D7 (confirmatory screen, Avery); conditions: Plasmodium falciparum; for EC50: 3D7, read-out: EC50_nM; for inhibition of growth at 5 µM: 3D7, read-out: percent_inh @ 5 uM
P. falciparum 3D7 [2] = system: P. falciparum 3D7; set-up: method as in ChEMBL-NTD; conditions: ref ChEMBL-NTD, cited from earlier work
[3] = original screening data, source (GSK, GNF, StJude), several values separated by ';' in order of sources
[4] = values follow the order of the source (GNF; GSK; StJude)

| Structure (SMILES) | EC50 (P. falciparum 3D7 [1]) [nM] | inhibition of growth at 5 µM (P. falciparum 3D7 [1]) [%] | other results |
| --- | --- | --- | --- |
| Cc1ccc(Nc2nc(-c3ccccn3)cs2)cc1 [MMV007907] | 350 | 79 | EC50 (P. falciparum 3D7 [2]; source GNF): 407 nM |
| Cn1c(C(=O)c2cccc3ccccc23)nc2ccccc21 [MMV665824] |  | 89 | EC50 (P. falciparum 3D7 [2]; source GNF): 6.92 nM |
| CCC(=O)Nc1nnc(Cc2ccc(OC)c(OC)c2)s1 [MMV020942] |  | 47 | EC50 (P. falciparum 3D7 [2]; source GSK (TCMDC ids)): 910 nM |
| O=C(NC1CCN(Cc2ccccc2)CC1)c1cc(-c2cccnc2)nc2ccc(Cl)cc12 [MMV020490] | 1010 | 91 | EC50 (P. falciparum 3D7 [2]; [3]): 759 nM |
| CCN(CC)CCCNc1nc(-c2ccc(Cl)cc2)nc2ccccc12 [MMV665961] |  | 92 | EC50 (P. falciparum 3D7 [2]; source StJude): 15000 nM |
| Cc1ccc(Nc2nc(NCCO)c3ccccc3n2)cc1C [MMV001038] | 428 |  | EC50 (P. falciparum 3D7 [2]; source GNF (GNF-Pf id)): 175 nM; EC50 (P. falciparum 3D7 [2]; source StJude (SJ id)): 843 nM |
| COc1cccc(-c2nn(C)c3sc(C(=O)NCCN4CCN(c5ccccc5F)CC4)cc23)c1 [MMV019064] | 1300 | 91 | EC50 (P. falciparum 3D7 [2]; source GSK): 955 nM |
| COc1nc(Nc2ccc(C(C)C)cc2)nc(OC)n1 [MMV007808] | 1140 | 88 | EC50 (P. falciparum 3D7 [2]; [3]): 677 nM |
| CCOc1c(Cl)cc(CNC(C)C(O)c2ccccc2)cc1OC (stereo not drawn) [MMV665857] |  | 98 | EC50 (P. falciparum 3D7 [2]; source GNF): 1650 nM |
| CCOC(=O)c1cn(CC)c2cc(N(C)CCc3ccc(OC)c(OC)c3)c(F)cc2c1=O [MMV665977] | 205 | 99 | EC50 (P. falciparum 3D7 [2]; source GNF (GNF-Pf id)): 103 nM; EC50 (P. falciparum 3D7 [2]; source GSK (TCMDC id)): 425 nM |
| COc1ccc(CNC(=O)c2cc3c(=O)n4ccccc4nc3n(CCc3ccccc3)c2=N)cc1 [MMV665881] | 1060 | 95 | EC50 (P. falciparum 3D7 [2]; [4]): 330 nM |
| CCN1CCN(c2cc(C)c3cc(NC(=O)c4ccc(OC)c(OC)c4)ccc3n2)CC1 [MMV019074] |  | 99 | EC50 (P. falciparum 3D7 [2]; source GSK): 1030 nM |
| CN(C)CCCNc1c2ccccc2nc2ccccc12 [MMV000448] | 235 | 95 | EC50 (P. falciparum 3D7 [2]; source GNF (GNF-Pf id)): 32.7 nM; EC50 (P. falciparum 3D7 [2]; source GSK (TCMDC id)): 1040 nM; EC50 (P. falciparum 3D7 [2]; source StJude (SJ id)): 531 nM |
| O=C(Nc1ccc(Br)cc1)Nc1cccc(Cl)c1 [MMV001318] |  | 94 | EC50 (P. falciparum 3D7 [2]; [3]): 15000 nM |
| CCCCN(CCCC)S(=O)(=O)c1ccc(NC(=O)c2ccco2)cc1 [MMV007881] |  | 78 | EC50 (P. falciparum 3D7 [2]; [3]): 1420 nM |
| CN1c2ccccc2N(C)C1c1ccc2c(c1)OCO2 [MMV666009] | 994 | 60 | EC50 (P. falciparum 3D7 [2]; source GNF): 1120 nM |
| CCCN(CCC)CC(O)COc1ccccc1C(=O)Nc1ccccc1 (stereo not drawn) [MMV006455] | 196 | 98 | EC50 (P. falciparum 3D7 [2]; source GNF (GNF-Pf id)): 365 nM; EC50 (P. falciparum 3D7 [2]; source GSK (TCMDC id)): 799 nM |
| CCOC(=O)c1cnc2c(C)cc(C)cc2c1Nc1ccc(OC)c(OC)c1 [MMV008294] | 232 | 96 | EC50 (P. falciparum 3D7 [2]; source GNF (GNF-Pf id)): 1780 nM |
| O=C(NCCCN1CCC(N2CCCCC2)CC1)C1=Cc2cc(Br)ccc2OC1 [MMV019995] | 563 | 99 | EC50 (P. falciparum 3D7 [2]; source GSK (TCMDC ids)): 853 nM |
| c1ccc(Cn2c(N=Nc3c(Nc4ccccc4)ccc4ccccc34)nc3ccccc32)cc1 [MMV666023] | 36.8 | 96 | EC50 (P. falciparum 3D7 [2]; source GNF (GNF-Pf id)): 2730 nM |
| CCCN(CCC)CCCNC(=O)c1cc2c(-c3ccc(OC)c(OC)c3)nn(C)c2s1 [MMV000561] | 1430 | 98 | EC50 (P. falciparum 3D7 [2]; [3]): 4040 nM |
| COc1cccc(NC(=O)Cn2c(C)c(C#N)c3ccccc32)c1 [MMV665826] | 1090 | 95 | EC50 (P. falciparum 3D7 [2]; source GNF): 79.6 nM; EC50 (P. falciparum 3D7 [2]; source GSK): 878 nM |
| CCOc1ccc(Nc2ccnc3cc(Cl)ccc23)cc1 [MMV007285] | 4000 |  | inhibition of growth at 2 µM (P. falciparum 3D7 [1]; 3D7, read-out: percent_inh @ 2 uM): 94%; EC50 (P. falciparum 3D7 [2]; [4]): 956 nM |
| COc1ccc(N2CCN(C(CNC(=O)C3CCCCC3)c3ccc4c(c3)OCO4)CC2)cc1 (stereo not drawn) [MMV019662] | 1110 | 97 | EC50 (P. falciparum 3D7 [2]; source GSK): 566 nM |
| COc1ccc2nc(C)cc(Nc3cccc(O)c3)c2c1 [MMV008212] | 969 | 98 | EC50 (P. falciparum 3D7 [2]; [3]): 228 nM |
| O=c1cc(NC2CCN(CCCc3ccccc3)CC2)c2cc(Cl)ccc2o1 [MMV665786] | 846 | 97 | EC50 (P. falciparum 3D7 [2]; source GNF (GNF-Pf ids)): 408 nM |
| COC(=O)c1ccc(C2C3=C(O)CC(c4ccc(F)cc4)CC3=Nc3ccccc3N2C(=O)c2ccccc2)cc1 (stereo not drawn) [MMV011438] | 326 | 98 | EC50 (P. falciparum 3D7 [2]; [4]): 332 nM |
| COc1ccccc1CNC(=O)CCn1c(=O)[nH]c2ccsc2c1=O [MMV019066] | 140 | 67 | EC50 (P. falciparum 3D7 [2]; source GSK (TCMDC id)): 1040 nM |
| CCN(CC)CCCNc1ccnc2cc3ccccc3cc12 [MMV665783] |  | 90 | EC50 (P. falciparum 3D7 [2]; source GNF (GNF-Pf ids)): 33.8 nM |
